# Assay results: patent US20260256724A1, “T[…] FOR […]” (Asklepion Pharmaceuticals LLC, priority 2022, published 2026)
# “Also recorded” adds a separate entry of the source.
# Tests used:
# [1] = system: pediatric patients exposed to cardiopulmonary bypass in congenital heart defect surgery; test: Phase 3 double-blind, placebo-controlled trial of citrulline in cardiopulmonary bypass surgery, re-analysed by percent of intraoperative Dose 2 received; assay type: in vivo
# Procedure: A Phase 3 study was carried out as a double-blind, placebo-controlled trial to confirm the effect. The Phase 3 trial was performed in the US, EU, and Israel, using a modified intent-to-treat population (or modified full analysis set) of 190 patients, of whom 138 were in the US and 52 were ex-US.
# The starting point for the analysis was consideration of the complete modified full analysis set, consisting of all enrolled patients who completed the protocol. […] The Modified Full Analysis Set consists of all enrolled patients who completed the protocol.
# In the study protocol and accompanying pharmacy manual for both studies, citrulline dosing occurs in four distinct phases. Dose 1 is a loading dose added to the cardiopulmonary […] bypass fluids on a mg/kg basis. Dose 3 is a bolus administered following surgery on a mg/kg basis, and Dose 4 is an IV drip at 9 mg/kg/hour. No variation in administration of these doses was introduced during the course of the phase 3 study.
# In contrast, Dose 2, the intraoperative dosing designed to compensate for ultrafiltration, was subject to some variation. Ultrafiltration during cardiac surgery is not standardized, and therefore, it was not possible to completely standardize this dose. The perfusionist estimates the volume of ultrafiltrate removed, as well as the volume of cardioplegia solution. The perfusionist then calculates according to the study pharmacy manual instructions the amount of citrulline to be administered to compensate for the ultrafiltered citrulline in order to maintain a specified therapeutic level.
# Although the therapeutic target level was set at 100 micromolar during the phase 2 study, because of the potential for variation in Dose 2 (which is given intraoperatively to compensate for the routine ongoing ultrafiltration of circulating bypass fluids to reduce the circulating concentrations of inflammatory mediators) and the concern that some patients might inadvertently receive sub-therapeutic intraoperative levels, the target level for Dose 2 in the phase 3 study was increased to 200 micromolar. This was considered to be safe since no adverse effects of citrulline had been reported, even at substantially higher levels in medical use. In order to examine whether variation in Dose 2 could explain the results obtained, the actual dose received, shown as the percent of the targeted dose, was plotted against the composite variable results. Since placebos received no citrulline, they were plotted at the 0% level.
# For the Phase 3 trial, a target intraoperative dose of […] (Dose 2) was chosen to preclude an inadvertent drop below an efficacious level in any patient. The potential for variation in intraoperative dosing arises from the lack of standardization of cardiopulmonary bypass ultrafiltration techniques. […] Nonetheless, expansion of the study to a greater number of sites raised the concern that some sites might inadvertently underdose Dose 2. Given the known innocuous nature of L-citrulline, an endogenous amino acid that is given medicinally in doses an order of magnitude higher than this to urea cycle disorder patients, as well as the well-tolerated high endogenous concentrations of citrulline in hypercitrullinemia patients, there was no concern for erring on the high side of the presumed effective dose.
# To investigate the data in more detail, patients were stratified according to the dose level actually administered intraoperatively. The values obtained for duration of mechanical ventilation (MV), length of inotrope therapy (InoTx) and the composite primary (created for the SAP, based on the longer of the MV or InoTx) in any patient were segmented into groups based on the percent of the 200 μmol target dose actually received by the patient, by comparing patients who had received <65%, <75%, <85%, <95%, and >95% of the calculated target dose. […] Analysis was performed via two-sided Wilcoxon Rank Sum. […]
# [2] = system: nitric oxide production; test: Nitric oxide production in a murine system, measured via NO metabolites; conditions: increasing citrulline concentration
# Source text: It is important to recall that citrulline is regenerated in the last step of NO production, making negative feedback by citrulline a reasonable hypothesis. Alternatively, an acute increase in NO production, which is known to have a negative feedback effect on NOS (Viziri and Wang, 1999) could explain the results. […] The negative clinical effects in the >95% group for the Phase 3 trial may thus result from one or more negative feedback mechanisms. The negative feedback could result from either the effect of NO or the citrulline itself creating feedback on the system.
# [3] = system: pediatric patients undergoing surgical procedures involving cardiopulmonary bypass; conditions: 22 patients (11 Tx, 11 PL); Dose 2 100 μmol; cited from earlier work
smiles,measurement,setting,value
"NC(=O)NCCC[C@H](N)C(=O)O [citrulline, L-citrulline]","Composite (longer of MV or InoTx), median","[1]; <65% of target Dose 2, p = 0.0040",1267.0 min
same,"PICU/NICU stay, median","[1]; <65% of target Dose 2, p = 0.0236",2 days
same,"Hospitalization, median","[1]; <65% of target Dose 2, p = 0.0953",4 days
same,Reduction of median Composite vs placebo,[1]; <75% of target Dose 2,42%
same,Reduction of median Inotrope vs placebo,[1]; <75% of target Dose 2,26%
same,Reduction of median Mechanical Ventilation vs placebo,[1]; <75% of target Dose 2,70%
same,"Composite (longer of MV or InoTx), median","[1]; <75% of target Dose 2, p = 0.0025",1267.0 min
same,"Vent (duration of mechanical ventilation), median","[1]; <75% of target Dose 2, p = 0.0129",170.0 min
same,"PICU/NICU stay, median","[1]; <75% of target Dose 2, p = 0.0295",2 days
same,"Hospitalization, median","[1]; <75% of target Dose 2, p = 0.1905",5 days
same,overall length of hospital stay vs placebo,[1]; <75% of the calculated Dose 2,not significantly different
same,"Composite (longer of MV or InoTx), median","[1]; <85% of target Dose 2, p = 0.0029",1283.5 min
same,"PICU/NICU stay, median","[1]; <85% of target Dose 2, p = 0.0332",2 days
same,"Hospitalization, median","[1]; <85% of target Dose 2, p = 0.1369",5 days
same,"Composite (longer of MV or InoTx), median","[1]; <95% of target Dose 2, p = 0.0033",1357.0 min
same,"Inotrope (duration of inotrope therapy), median","[1]; <95% of target Dose 2, p = 0.0242",1300.0 min
same,"PICU/NICU stay, median","[1]; <95% of target Dose 2, p = 0.1232",2 days
same,"Hospitalization, median","[1]; <95% of target Dose 2, p = 0.3169",5 days
same,"Hospitalization, median","[1]; >95% of target Dose 2, p = 0.0006",7 days
same,"PICU/NICU stay, median","[1]; >95% of target Dose 2, p = 0.0034",4 days
same,"Composite (longer of MV or InoTx), median","[1]; >95% of target Dose 2, p = 0.0114",3447.0 min
same,"composite variable, duration of mechanical ventilation and duration of inotrope therapy vs placebo",[1]; >95% of the targeted dose (>190 μmol),worse results when treated with citrulline than placebo patients
same,"Composite (longer of MV or InoTx), median","[1]; All Patients, p = 0.3398 vs placebo (placebo median 2204.0)",1640.0 min
same,"Hospitalization, median","[1]; All Patients, p = 0.3681 vs placebo (placebo median 5)",5 days
same,"PICU/NICU stay, median","[1]; All Patients, p = 0.8484 vs placebo (placebo median 3)",3 days
same,reduction in the length of stay in the PICU or NICU following surgery,[1]; Dose 2 at levels <95% of target,statistically significant reduction of one day
same,"composite variable, duration of mechanical ventilation and duration of inotrope therapy vs placebo","[1]; Dose 2 at levels <95% of target, two-sided Wilcoxon Rank Sum",Statistically significant reduction of all variables; also recorded: highly significant reductions
same,"composite endpoint, treated vs placebo",[1]; complete modified full analysis set,showed no difference
same,production of NO as measured via NO metabolites,[2],"increasing levels of citrulline initially facilitate nitric oxide production; however, continued increase in citrulline concentration results in diminished production of NO"
same,primary parameters (duration of MV & InoTx) vs placebo,[3],near-significance
